From ChEMBL document CHEMBL5113492, “Design, synthesis, and biological evalution of bifunctional inhibitors against Hsp90-HDAC6 interplay” (Eur J Med Chem, 2022) come the findings set out here.

The structures appear in SMILES notation. Active and inactive are the calls of the source. The rule behind the calls is not given here.

Series [1] addresses T1, Heat shock protein HSP90 (Homo sapiens) (UniProt P07900+P08238). Put plainly: Inhibition of HSP90 in human NCI-H1975 cells assessed as downregulation of CDK-4 expression at 2 uM incubated for 24 hrs by western blot analysis. It is filed as cell-based. A general note: Immunoblotting shows a protein as a band on a membrane.
The target of series [2] is T1, Heat shock protein HSP90 (Homo sapiens). The series is described as follows: Inhibition of HSP90 in human NCI-H1975 cells assessed as downregulation of Met expression at 2 uM incubated for 24 hrs by western blot analysis. It is filed as cell-based.
In the next series the test system is Mus musculus. The series is described as follows: In vivo inhibition of HDAC1 in human NCI-H1975 cells xenografted with NSG mouse assessed as increase in acetylation of Histone H3 at 50 mg/kg,ip measured after 6 weeks by immunohistochemistry analysis. The series is classed as functional, organism-based.
In series [3] the target is T1, Heat shock protein HSP90 (Homo sapiens). Put plainly: Inhibition of HSP90 in human NCI-H1975 cells assessed as downregulation of EGFR expression at 2 uM incubated for 24 hrs by western blot analysis. The series is classed as cell-based.
Series [4] deals with NCI-H1975. The series is described as follows: Antitumor activity against NSG mouse xenografted with human NCI-H1975 cells assessed as reduction on tumor growth at 25 mg/kg,ip measured after 2 weeks. It is filed as functional, organism-based. In general terms: In xenograft studies the graft and the host belong to different species.
The test system of series [5] is NCI-H1975. Put plainly: Antiproliferative activity against human NCI-H1975 cells assessed as growth inhibition incubated upto 72 hrs by CellTiter96 Aqueous One Solution Cell Proliferation assay. It is filed as functional.
Series [6] can be described thus: Toxicity in NSG mouse xenografted with human NCI-H1975 cells assessed as abnormal behavior at 50 mg/kg,ip measured after 6 weeks. The settings on record: in vivo, 1008 h. The series is classed as organism-based.
The target in series [7] is T1, Heat shock protein HSP90 (Homo sapiens). Put plainly: Inhibition of HSP90 in human NCI-H1975 cells assessed as downregulation of Akt expression at 2 uM incubated for 24 hrs by western blot analysis. The series is classed as cell-based.
The subject of series [8] is NCI-H1975. Put plainly: Antitumor activity against NSG mouse xenografted with human NCI-H1975 cells assessed as reduction on tumor growth at 50 mg/kg,ip measured after 6 weeks. The series is classed as functional, organism-based.
The nature of series [9]: Toxicity in NSG mouse xenografted with human NCI-H1975 cells assessed as change in structure of retina at 50 mg/kg,ip measured after 6 weeks by H and E staining based assay. It is filed as organism-based. To be noted: in vivo, 1008 h.
The target in series [10] is T1, Heat shock protein HSP90 (Homo sapiens). The series is described as follows: Inhibition of HSP90 in human NCI-H1975 cells assessed as downregulation of Met expression at 0.05 to 2 uM incubated for 24 hrs by western blot analysis. To be noted: dose 0.05-2 µM, DDE = dose-dependent effect. The series is classed as cell-based.
The target is the same in series [11]. Put plainly: Inhibition of HSP90 in human NCI-H1975 cells assessed as upregulation of HSP70 expression at 2 uM incubated for 24 hrs by western blot analysis. The series is classed as cell-based.
A short description of series [12]: Toxicity in NSG mouse xenografted with human NCI-H1975 cells assessed as histological abnormalities in ocular region at 50 mg/kg,ip measured after 6 weeks by H and E staining based assay. It is filed as organism-based. The settings on record: in vivo, 1008 h.
The test system of series [13] is NCI-H1975. The series is described as follows: Antitumor activity against NSG mouse xenografted with human NCI-H1975 cells assessed as reduction on tumor growth at 25 mg/kg,ip measured after 6 weeks. The series is classed as functional, organism-based.
In series [14] the target is T1, Heat shock protein HSP90 (Homo sapiens). The series is described as follows: Inhibition of HSP90 in human NCI-H1975 cells assessed as downregulation of Her2 expression at 0.05 to 2 uM incubated for 24 hrs by western blot analysis. The series is classed as cell-based. To be noted: dose 0.05-2 µM, DDE = dose-dependent effect.
In series [15] the test system is NCI-H1975. The series is described as follows: Antitumor activity against NSG mouse xenografted with human NCI-H1975 cells assessed as reduction on tumor growth at 50 mg/kg,ip measured after 2 weeks. The series is classed as functional, organism-based.
A further series deals with T2, Histone deacetylase 7 (Homo sapiens, UniProt Q8WUI4).
T2 sequence (Q8WUI4 whole entry): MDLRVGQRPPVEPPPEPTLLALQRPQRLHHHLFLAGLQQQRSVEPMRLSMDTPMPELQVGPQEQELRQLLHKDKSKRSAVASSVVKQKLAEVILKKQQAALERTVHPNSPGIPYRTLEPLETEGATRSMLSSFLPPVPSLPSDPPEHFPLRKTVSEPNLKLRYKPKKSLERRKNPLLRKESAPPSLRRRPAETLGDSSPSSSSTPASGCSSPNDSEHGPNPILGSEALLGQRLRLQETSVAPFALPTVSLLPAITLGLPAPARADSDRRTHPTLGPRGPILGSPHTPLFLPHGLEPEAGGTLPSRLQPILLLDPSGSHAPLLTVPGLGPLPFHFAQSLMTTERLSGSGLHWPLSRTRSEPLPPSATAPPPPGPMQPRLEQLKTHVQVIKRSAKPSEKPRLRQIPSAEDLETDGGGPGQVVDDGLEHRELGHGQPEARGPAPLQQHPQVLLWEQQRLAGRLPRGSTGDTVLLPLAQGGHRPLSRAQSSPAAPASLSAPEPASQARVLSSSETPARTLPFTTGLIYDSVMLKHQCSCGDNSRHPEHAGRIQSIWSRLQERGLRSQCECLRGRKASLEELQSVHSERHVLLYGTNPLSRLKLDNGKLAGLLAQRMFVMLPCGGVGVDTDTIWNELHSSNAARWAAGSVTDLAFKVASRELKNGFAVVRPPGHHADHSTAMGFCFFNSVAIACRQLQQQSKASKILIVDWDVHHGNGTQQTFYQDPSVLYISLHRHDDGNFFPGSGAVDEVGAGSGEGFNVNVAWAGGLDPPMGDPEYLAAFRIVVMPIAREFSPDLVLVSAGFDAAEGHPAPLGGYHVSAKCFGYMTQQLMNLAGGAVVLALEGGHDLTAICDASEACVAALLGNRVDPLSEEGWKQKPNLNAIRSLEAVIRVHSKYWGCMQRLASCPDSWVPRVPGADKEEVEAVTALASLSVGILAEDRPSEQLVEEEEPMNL
The series is described as follows: Inhibition of HDAC7 (unknown origin) using fluorogenic substrate incubated for 30 mins by fluorescence plate reader.

A short description of series [16]: Toxicity in NSG mouse xenografted with human NCI-H1975 cells assessed as change in body weight at 50 mg/kg,ip measured after 6 weeks. The series is classed as organism-based. To be noted: in vivo, 1008 h.
Another series has as its target Histone deacetylase 3 (Homo sapiens, UniProt O15379). The series is described as follows: Inhibition of HDAC3 (unknown origin) using fluorogenic substrate incubated for 30 mins by fluorescence plate reader.

Histone deacetylase 3, sequence (O15379 whole entry): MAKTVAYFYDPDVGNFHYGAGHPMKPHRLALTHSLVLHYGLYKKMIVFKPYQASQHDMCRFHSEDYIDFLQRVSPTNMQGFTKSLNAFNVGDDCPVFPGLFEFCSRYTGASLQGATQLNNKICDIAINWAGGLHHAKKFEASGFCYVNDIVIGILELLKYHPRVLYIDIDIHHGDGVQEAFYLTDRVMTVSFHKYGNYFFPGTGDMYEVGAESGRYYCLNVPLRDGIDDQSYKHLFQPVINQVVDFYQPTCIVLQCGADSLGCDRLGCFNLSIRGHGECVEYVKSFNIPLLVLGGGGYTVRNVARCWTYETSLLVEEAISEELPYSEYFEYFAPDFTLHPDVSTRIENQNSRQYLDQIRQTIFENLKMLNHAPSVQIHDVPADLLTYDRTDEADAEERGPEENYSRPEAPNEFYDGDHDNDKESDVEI

For orientation: GI50 means the concentration that inhibits growth by half. What is called IC50 is the midpoint of a concentration-inhibition curve. Read a low IC50 as greater potency in that assay. Turning to `CC(C)c1cc(C(=O)N(C)Cc2ccc(C(=O)NO)cc2)c(O)cc1O`, the inhibition entry (in [1]; in [2]; in the series with Mus musculus; in [3]; in series [7]; in series [11]) was “Active” each time. Besides, the result with NCI-H1975 [4], in the series with NCI-H1975 [8], in the series with NCI-H1975 [13] and in the series on NCI-H1975 [15] was Active. In the series with NCI-H1975 [5], the concentration for 50% growth inhibition (GI50) was 1700 nM. Moreover, the Activity entry in [6], in series [9], in series [12] and in series [16] was “Non-Toxic” throughout. Also, the inhibition result in series [10] and in series [14] was “Dde” each time. Besides, the figures for the IC50 against Histone deacetylase 7 and against Histone deacetylase 3 were 1690 nM and 1540 nM, respectively.
